Assays:
Assay in all cases: cells
[1] = system: LN-405; assay type: functional, cell-based, Homo sapiens; details: Homo sapiens, LN-405
Description: SANGER: Inhibition of human LN-405 cell growth in a cell viability assay.

[2] = system: TGBC1TKB; assay type: functional, cell-based, Homo sapiens; details: Homo sapiens, TGBC1TKB;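 note: growth inhibition of TGBC1TKB cells, read out by a cell viability assay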
Description: SANGER: Inhibition of human TGBC1TKB cell growth in a cell viability assay.

[3] = system: GT3TKB; assay type: functional, cell-based, Homo sapiens; details: Homo sapiens, GT3TKB;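 note: growth inhibition of the cell line, read out with a cell viability assay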
Description: SANGER: Inhibition of human GT3TKB cell growth in a cell viability assay.

[4] = system: GMS-10; assay type: functional, cell-based, Homo sapiens; details: Homo sapiens, GMS-10;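 note: growth inhibition of GMS-10 cells, read out as cell viability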
Description: SANGER: Inhibition of human GMS-10 cell growth in a cell viability assay.

[5] = system: CHP-212; assay type: functional, cell-based, Homo sapiens; details: Homo sapiens, CHP-212
Description: SANGER: Inhibition of human CHP-212 cell growth in a cell viability assay.

[6] = system: VA-ES-BJ; assay type: functional, cell-based, Homo sapiens; details: Homo sapiens, VA-ES-BJ;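 note: growth inhibition of the VA-ES-BJ cell line, read out by a cell viability assay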
Description: SANGER: Inhibition of human VA-ES-BJ cell growth in a cell viability assay.

[7] = system: SF-126; assay type: functional, cell-based, Homo sapiens; details: Homo sapiens, SF-126;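 note: growth inhibition of human SF126 cells, read out with a cell viability assay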
Description: SANGER: Inhibition of human SF126 cell growth in a cell viability assay.

[8] = system: DMS-273; assay type: functional, cell-based, Homo sapiens; details: Homo sapiens, DMS-273
Description: SANGER: Inhibition of human DMS-273 cell growth in a cell viability assay.

[9] = system: EW-11; assay type: functional, cell-based, Homo sapiens; details: Homo sapiens, EW-11;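 note: growth inhibition of human EW-11 cells, measured with a cell viability assay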
Description: SANGER: Inhibition of human EW-11 cell growth in a cell viability assay.

[10] = system: Lu-65; assay type: functional, cell-based; details: Homo sapiens;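 note: growth inhibition of Lu-65 cancer cells, read out by a cell viability assay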
Description: SANGER: Inhibition of human LU-65 cell growth in a cell viability assay.

[11] = system: BFTC-909; assay type: functional, cell-based, Homo sapiens; details: Homo sapiens, BFTC-909
Description: SANGER: Inhibition of human BFTC-909 cell growth in a cell viability assay.

[12] = system: OMC-1; assay type: functional, cell-based, Homo sapiens; details: Homo sapiens, OMC-1;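 note: growth inhibition of the OMC-1 cell line, measured by a cell viability assay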
Description: SANGER: Inhibition of human OMC-1 cell growth in a cell viability assay.

[13] = system: Ca9-22; assay type: functional, cell-based, Homo sapiens; details: Homo sapiens, Ca9-22;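 note: growth inhibition of Ca9-22 cells, read out with a cell viability assay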
Description: SANGER: Inhibition of human Ca9-22 cell growth in a cell viability assay.

[14] = system: NCI-H1793; assay type: functional, cell-based, Homo sapiens; details: Homo sapiens, NCI-H1793;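 note: cell growth inhibition, read out by a cell viability assay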
Description: SANGER: Inhibition of human NCI-H1793 cell growth in a cell viability assay.

[15] = system: Huh-7; assay type: functional, cell-based, Homo sapiens; details: Homo sapiens, Huh-7;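 note: HuH-7 cell growth inhibition, read out with a cell viability assay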
Description: SANGER: Inhibition of human HuH-7 cell growth in a cell viability assay.

[16] = system: NCI-H810; assay type: functional, cell-based, Homo sapiens; details: Homo sapiens, NCI-H810;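 note: IC50 reflects inhibition of cancer cell line growth, read out with a cell viability assay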
Description: SANGER: Inhibition of human NCI-H810 cell growth in a cell viability assay.

[17] = system: DU-145; assay type: functional, cell-based, Homo sapiens; details: Homo sapiens, DU-145
Description: SANGER: Inhibition of human DU-145 cell growth in a cell viability assay.

[18] = system: SW756; assay type: functional, cell-based, Homo sapiens; details: Homo sapiens, SW756;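 note: growth inhibition of human SW756 cells, read out with a cell viability assay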
Description: SANGER: Inhibition of human SW756 cell growth in a cell viability assay.

[19] = system: HCC 2998; assay type: functional, cell-based, Homo sapiens; details: Homo sapiens, HCC 2998;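 note: growth inhibition of human HCC2998 cells, measured with a cell viability read-out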
Description: SANGER: Inhibition of human HCC2998 cell growth in a cell viability assay.

[20] = system: KINGS-1; assay type: functional, cell-based, Homo sapiens; details: Homo sapiens, KINGS-1;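 note: cell viability assay measuring suppression of KINGS-1 cell growth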
Description: SANGER: Inhibition of human KINGS-1 cell growth in a cell viability assay.

[21] = system: UACC-257; assay type: functional, cell-based, Homo sapiens; details: Homo sapiens, UACC-257
Description: SANGER: Inhibition of human UACC-257 cell growth in a cell viability assay.

[22] = system: GI-ME-N; assay type: functional, cell-based, Homo sapiens; details: Homo sapiens, GI-ME-N;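 note: growth inhibition of human GI-ME-N cells, read out with a cell viability assay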
Description: SANGER: Inhibition of human GI-ME-N cell growth in a cell viability assay.

[23] = system: IST-MES1; assay type: functional, cell-based, Homo sapiens; details: Homo sapiens, IST-MES1;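 note: growth inhibition of IST-MES1 cells, measured with a cell viability assay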
Description: SANGER: Inhibition of human IST-MES1 cell growth in a cell viability assay.

[24] = system: DOK; assay type: functional, cell-based, Homo sapiens; details: Homo sapiens, DOK;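 note: cell viability assay read-out, values reflect inhibition of cell growth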
Description: SANGER: Inhibition of human DOK cell growth in a cell viability assay.

[25] = system: C32; assay type: functional, cell-based, Homo sapiens; details: Homo sapiens, C32;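 note: cell viability assay, with IC50 reflecting inhibition of C32 cell growth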
Description: SANGER: Inhibition of human C32 cell growth in a cell viability assay.

[26] = system: HCT-116; assay type: functional, cell-based, Homo sapiens; details: Homo sapiens, HCT-116
Description: SANGER: Inhibition of human HCT-116 cell growth in a cell viability assay.

[27] = system: 5637; assay type: functional, cell-based, Homo sapiens; details: Homo sapiens
Description: SANGER: Inhibition of human 5637 cell growth in a cell viability assay.

[28] = system: Ca-Ski; assay type: functional, cell-based; details: Homo sapiens;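 note: cell viability assay measuring inhibition of Ca-Ski cell growth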
Description: SANGER: Inhibition of human Ca-Ski cell growth in a cell viability assay.

[29] = system: IST-MEL1; assay type: functional, cell-based, Homo sapiens; details: Homo sapiens, IST-MEL1;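 note: growth inhibition of the cell line, read out with a cell viability assay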
Description: SANGER: Inhibition of human IST-MEL1 cell growth in a cell viability assay.

[30] = system: OVCAR-3; assay type: functional, cell-based, Homo sapiens; details: Homo sapiens, OVCAR-3;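 note: growth inhibition of human OVCAR-3 cells, determined by a cell viability assay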
Description: SANGER: Inhibition of human OVCAR-3 cell growth in a cell viability assay.

[31] = system: NB69; assay type: functional, cell-based, Homo sapiens; details: Homo sapiens, NB69;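 note: growth inhibition of NB69 cells, determined by a cell viability assay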
Description: SANGER: Inhibition of human NB69 cell growth in a cell viability assay.

[32] = system: SiHa; assay type: functional, cell-based, Homo sapiens; details: Homo sapiens, SiHa;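 note: Viability-based readout of growth inhibition in SiHa cells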
Description: SANGER: Inhibition of human SiHa cell growth in a cell viability assay.

[33] = system: SW684; assay type: functional, cell-based, Homo sapiens; details: Homo sapiens, SW684;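 note: growth inhibition of human SW684 cells, measured by a cell viability assay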
Description: SANGER: Inhibition of human SW684 cell growth in a cell viability assay.

[34] = system: NCI-H1395; assay type: functional, cell-based, Homo sapiens; details: Homo sapiens, NCI-H1395;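 note: cell viability assay read-out quantifying reduced proliferation of human NCI-H1395 cells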
Description: SANGER: Inhibition of human NCI-H1395 cell growth in a cell viability assay.

[35] = system: IGR-1; assay type: functional, cell-based, Homo sapiens; details: Homo sapiens, IGR-1;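 note: growth inhibition of human IGR-1 cells, read out with a cell viability assay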
Description: SANGER: Inhibition of human IGR-1 cell growth in a cell viability assay.

[36] = system: LCLC-103H cell line; assay type: functional, cell-based, Homo sapiens; details: Homo sapiens, LCLC-103H
Description: SANGER: Inhibition of human LCLC-103H cell growth in a cell viability assay.

[37] = system: SW1990; assay type: functional, cell-based, Homo sapiens; details: Homo sapiens, SW1990;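 note: cell growth inhibition determined with a viability assay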
Description: SANGER: Inhibition of human SW1990 cell growth in a cell viability assay.

[38] = system: MIA PaCa-2; assay type: functional, cell-based, Homo sapiens; details: Homo sapiens, MIA PaCa-2;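 note: growth inhibition of MIA PaCa-2 cells, read out with a cell viability assay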
Description: SANGER: Inhibition of human MIA-PaCa-2 cell growth in a cell viability assay.

[39] = system: NCI-H1792; assay type: functional, cell-based, Homo sapiens; details: Homo sapiens, NCI-H1792;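 note: growth inhibition of human NCI-H1792 cells, read out as cell viability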
Description: SANGER: Inhibition of human NCI-H1792 cell growth in a cell viability assay.

[40] = system: NCI-H69; assay type: functional, cell-based; details: Homo sapiens;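 note: growth inhibition of the cell line, read out with a cell viability assay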
Description: SANGER: Inhibition of human NCI-H69 cell growth in a cell viability assay.

[41] = system: KYSE-450; assay type: functional, cell-based; details: Homo sapiens;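 note: cell growth inhibition measured by a viability assay in human KYSE-450 cells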
Description: SANGER: Inhibition of human KYSE-450 cell growth in a cell viability assay.

[42] = system: NCI-H2228; assay type: functional, cell-based, Homo sapiens; details: Homo sapiens, NCI-H2228;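 note: growth inhibition of human NCI-H2228 cells, read out by a cell viability assay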
Description: SANGER: Inhibition of human NCI-H2228 cell growth in a cell viability assay.

[43] = system: MLMA; assay type: functional, cell-based, Homo sapiens; details: Homo sapiens, MLMA;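 note: growth inhibition of MLMA cells (human), determined through a cell viability readout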
Description: SANGER: Inhibition of human MLMA cell growth in a cell viability assay.

[44] = system: NCI-N87; assay type: functional, cell-based, Homo sapiens; details: Homo sapiens, NCI-N87;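 note: growth inhibition of human NCI-N87 cells, read out with a cell viability assay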
Description: SANGER: Inhibition of human NCI-N87 cell growth in a cell viability assay.

[45] = system: HMV-2 cell line; assay type: functional, cell-based, Homo sapiens; details: Homo sapiens, HMV-2;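 note: growth inhibition of HMV-II cells, read out with a cell viability assay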
Description: SANGER: Inhibition of human HMV-II cell growth in a cell viability assay.

[46] = system: NCI-H2122; assay type: functional, cell-based, Homo sapiens; details: Homo sapiens, NCI-H2122;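 note: growth inhibition of the cells, read out with a cell viability assay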
Description: SANGER: Inhibition of human NCI-H2122 cell growth in a cell viability assay.

[47] = system: COR-L88; assay type: functional, cell-based; details: Homo sapiens;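 note: growth inhibition of COR-L88 cells, read out with a cell viability assay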
Description: SANGER: Inhibition of human COR-L88 cell growth in a cell viability assay.

[48] = system: QIMR-WIL; assay type: functional, cell-based; details: Homo sapiens;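 note: growth inhibition of QIMR-WIL cells, read out with a cell viability assay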
Description: SANGER: Inhibition of human QIMR-WIL cell growth in a cell viability assay.

[49] = system: NCI-H596; assay type: functional, cell-based, Homo sapiens; details: Homo sapiens, NCI-H596;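 note: growth inhibition of NCI-H596 cells, read out with a cell viability assay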
Description: SANGER: Inhibition of human NCI-H596 cell growth in a cell viability assay.

**Q.** With `CC(=O)O[C@@]12CO[C@@H]1C[C@H](O)[C@@]1(C)C(=O)[C@H](O)C3=C(C)[C@@H](OC(=O)[C@H](O)[C@@H](NC(=O)OC(C)(C)C)c4ccccc4)C[C@@](O)([C@@H](OC(=O)c4ccccc4)[C@H]21)C3(C)C` [DOCETAXEL] as the molecule, how does the IC50 [1] read?
**A.** 4.82 nM

**Q.** What about the IC50 [2] of the same molecule?
**A.** 9.1 nM

**Q.** And the IC50 [3]?
**A.** 0.232 nM

**Q.** What about the IC50 [4] of the same molecule?
**A.** 0.941 nM

**Q.** What about the IC50 [5] of the same molecule?
**A.** 0.73 nM

**Q.** And the IC50 [6]?
**A.** 0.375 nM

**Q.** What about the IC50 [7] of the same molecule?
**A.** 3.29 nM

**Q.** And the IC50 [8]?
**A.** 0.674 nM

**Q.** And the IC50 [9]?
**A.** 1.69 nM

**Q.** What about the IC50 [10] of the same molecule?
**A.** > 10 nM

**Q.** And the IC50 [11]?
**A.** 2.25 nM

**Q.** And the IC50 [12]?
**A.** 9.06 nM

**Q.** And the IC50 [13]?
**A.** 0.423 nM

**Q.** And the IC50 [14]?
**A.** > 10 nM

**Q.** And the IC50 [15]?
**A.** > 10 nM

**Q.** And the IC50 [16]?
**A.** 6.22 nM

**Q.** What about the IC50 [17] of the same molecule?
**A.** > 10 nM

**Q.** And the IC50 [18]?
**A.** 2.16 nM

**Q.** What about the IC50 [19] of the same molecule?
**A.** 4.08 nM

**Q.** What about the IC50 [20] of the same molecule?
**A.** 1.17 nM

**Q.** What about the IC50 [21] of the same molecule?
**A.** > 10 nM

**Q.** And the IC50 [22]?
**A.** 3.58 nM

**Q.** What about the IC50 [23] of the same molecule?
**A.** 8.4 nM

**Q.** What about the IC50 [24] of the same molecule?
**A.** 2.94 nM

**Q.** What about the IC50 [25] of the same molecule?
**A.** > 10 nM

**Q.** And the IC50 [26]?
**A.** 1.81 nM

**Q.** And the IC50 [27]?
**A.** 0.143 nM

**Q.** What about the IC50 [28] of the same molecule?
**A.** 0.728 nM

**Q.** And the IC50 [29]?
**A.** 2.25 nM

**Q.** What about the IC50 [30] of the same molecule?
**A.** 4.07 nM

**Q.** And the IC50 [31]?
**A.** 6.29 nM

**Q.** What about the IC50 [32] of the same molecule?
**A.** 4.3 nM

**Q.** What about the IC50 [33] of the same molecule?
**A.** > 10 nM

**Q.** And the IC50 [34]?
**A.** 3.96 nM

**Q.** What about the IC50 [35] of the same molecule?
**A.** 6.41 nM

**Q.** What about the IC50 [36] of the same molecule?
**A.** 2.93 nM

**Q.** What about the IC50 [37] of the same molecule?
**A.** > 10 nM

**Q.** What about the IC50 [38] of the same molecule?
**A.** 3.24 nM

**Q.** What about the IC50 [39] of the same molecule?
**A.** 1.04 nM

**Q.** What about the IC50 [40] of the same molecule?
**A.** > 10 nM

**Q.** And the IC50 [41]?
**A.** 1.43 nM

**Q.** And the IC50 [42]?
**A.** 7.25 nM

**Q.** And the IC50 [43]?
**A.** 3.55 nM

**Q.** What about the IC50 [44] of the same molecule?
**A.** > 10 nM

**Q.** What about the IC50 [45] of the same molecule?
**A.** > 10 nM

**Q.** And the IC50 [46]?
**A.** 1.84 nM

**Q.** And the IC50 [47]?
**A.** > 10 nM

**Q.** And the IC50 [48]?
**A.** 4.38 nM

**Q.** And the IC50 [49]?
**A.** > 10 nM
